# System: fibroblasts separated from skin tissue
# Assay: Collagen concentration in fibroblast culture supernatant (human collagen ELISA quantitative kit)
# Format: cell-based
# Conditions: vitamin C (0.01-1 mM) added to the culture medium of skin fibroblasts; unit not given
# Method: Culture of the fibroblasts separated from skin tissue was carried out according to a well-known method (R. I. Freshney, Culture of Animal Cells: A MANUAL OF BASIC TECHNIQUE (Wiley-Liss, Inc. 2000)). Specifically, the fibroblasts separated from skin tissue were being subcultured, subsequently followed by expansion culture, to be end up to a few T-225 flasks in the end. Vitamin C in the range of 0.01-1 mM was added to the culture medium three days before the end of culture (scheduled day of injection). Furthermore, the culture medium was replaced with a 2-5% self-serum addition culture medium with no vitamin C added. The cultured fibroblasts were exfoliated from a culture vessel with a dispersion liquid with no EDTA solution or enzyme, and the cells were separated from the dispersion liquid by centrifugation. Then, washing in a physiological salt solution were performed more than three times. The collagen concentration contained in the culture supernatant of the fibroblasts cultured in the culture medium with vitamin C added of Example 1 and the culture supernatant with no vitamin C added by the human collagen ELISA quantitative kit (AC Biotechnologies).
structure (smiles),measurement,value
O=C1O[C@H]([C@@H](O)CO)C(O)=C1O [vitamin C],collagen concentration contained in the culture supernatant,11.3

# Reference: patent US20100124782A1, “Composition For Repairing Defect In Skin Or Gingival Soft Tissue And Method Of Culturing Autologous Fibroblasts” (Applied Cell Biotechnologies, Inc., priority 2007, published 2010)
